Measurements: US8846951B2 (AbbVie Inc., priority 2009, dated 2014)
pEC50: −log10 of the molar value. Like-named read-outs stand apart in the source and are kept apart here.

Tests used:
5HT2B receptors = target: T1, 5HT2B receptors (Homo sapiens, UniProt P41595); assay: Human 5-HT2B functional high throughput screening assay in CHO-K1 cells (calcium flux); type: cell-based; details: for pEC50: CHO-K1 cells, calcium flux
T1 construct: expressed in transfected cells; host or cells: CHO-K1 cells
Outline: (§1)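 Serum-starved CHO-K1 cells carrying the receptor; Ca4 dye, 60 min RT. Test compound added after a 10 s baseline, fluorescence followed for 3 min. EC50 from 4-parameter fit; Emax given as % of serotonin effect.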

5HT2C receptors = target: T2, 5HT2C receptors (Homo sapiens, UniProt P28335); assay: Human 5-HT2C functional high throughput screening assay in CHO-K1 cells (calcium flux); type: cell-based; set-up: expressed in transfected cells; host or cells: CHO-K1 cells; details: for Emax: CHO-K1, 5-HT2C, maximum functional response as percentage relative to the effect of serotonin; for pEC50: CHO-K1 cells, calcium flux
T2 sequence (P28335 33-458): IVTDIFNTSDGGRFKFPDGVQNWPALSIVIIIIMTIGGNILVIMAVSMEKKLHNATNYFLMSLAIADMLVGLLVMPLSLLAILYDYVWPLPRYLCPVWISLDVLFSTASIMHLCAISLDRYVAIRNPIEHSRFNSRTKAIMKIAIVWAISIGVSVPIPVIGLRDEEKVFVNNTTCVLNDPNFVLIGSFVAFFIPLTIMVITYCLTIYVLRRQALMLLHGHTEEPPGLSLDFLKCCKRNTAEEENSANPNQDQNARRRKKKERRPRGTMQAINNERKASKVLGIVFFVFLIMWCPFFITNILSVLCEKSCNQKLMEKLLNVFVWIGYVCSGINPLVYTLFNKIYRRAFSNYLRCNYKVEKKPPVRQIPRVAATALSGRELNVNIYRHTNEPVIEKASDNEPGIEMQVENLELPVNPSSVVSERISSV
Outline: as §1

[1] = 5-HT2B agonist activity, read-out: EC50
[2] = 5-HT2B, maximum functional response as percentage relative to the effect of serotonin
[3] = 5-HT2C agonist activity, read-out: EC50

T1 sequence (P41595 whole entry): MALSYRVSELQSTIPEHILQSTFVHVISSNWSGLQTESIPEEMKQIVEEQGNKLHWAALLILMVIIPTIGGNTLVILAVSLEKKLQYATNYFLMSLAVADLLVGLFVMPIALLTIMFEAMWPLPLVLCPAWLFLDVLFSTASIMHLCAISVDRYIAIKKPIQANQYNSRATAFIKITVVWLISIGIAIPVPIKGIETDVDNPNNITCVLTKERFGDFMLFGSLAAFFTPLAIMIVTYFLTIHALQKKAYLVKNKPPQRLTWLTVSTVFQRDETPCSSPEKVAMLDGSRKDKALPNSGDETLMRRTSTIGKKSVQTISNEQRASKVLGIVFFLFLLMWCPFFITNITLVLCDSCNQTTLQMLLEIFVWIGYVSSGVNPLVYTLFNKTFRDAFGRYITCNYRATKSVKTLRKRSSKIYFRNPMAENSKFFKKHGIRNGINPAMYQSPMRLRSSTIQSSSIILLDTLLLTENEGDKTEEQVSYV

Structure (SMILES)	pEC50 (5HT2B receptors; [1])	Emax (5HT2B receptors; [2])	pEC50 (5HT2C receptors; [3])	Emax (5HT2C receptors; read-out: Emax) [%]	Emax (5HT2B receptors; CHO-K1, 5-HT2B, maximum functional response as percentage relative to the effect of serotonin, read-out: Emax) [%]	Emax (5HT2B receptors; CHO-K1) [%]	pEC50 (5HT2B receptors; EC50, 5-HT2B agonist activity)	Emax (5HT2C receptors) [%]	pEC50 (5HT2C receptors; EC50, 5-HT2C agonist activity)
Cc1ccc2c(c1)[C@H]1CNC[C@@H]1CCO2 (relative stereo) [Example 290, Trans-9-methyl-2,3,3a,4,5,10b-hexahydro-1H-[1]benzoxepino[4,5-c]pyrrole]	–	–	–	–	–	35	7.70	80	7.00
CN1CC[C@@H]2CNC[C@H]2c2cccc(Cl)c21 (relative stereo) [Example 375, Trans-7-chloro-6-methyl-1,2,3,3a,4,5,6,10b-octahydropyrrolo[3,4-d][1]benzazepine]	–	–	–	–	–	95	8.00	100	9.52
CN1C[C@@H]2CNC(=O)c3cc(Cl)ccc3[C@H]2C1 [Example 199, (3aS,10bS)-8-Chloro-2-methyl-1,2,3,3a,4,5-hexahydrobenzo[e]pyrrolo[3,4-c]azepin-6(10bH)-one]	–	inactive	–	–	–	–	< 5.00	> 120	8.00
O=S(=O)(c1ccccc1F)N1Cc2cccnc2[C@@H]2CNC[C@H]2C1 (relative stereo) [Example 361, Trans-6-[(2-fluorophenyl)sulfonyl]-5,6,7,7a,8,9,10,10a-octahydropyrido[3,2-c]pyrrolo[3,4-e]azepine]	–	–	–	–	–	80	6.52	80	7.00
O=S(=O)(c1ccc(C(F)(F)F)cc1)N1Cc2cccnc2[C@@H]2CNC[C@H]2C1 (relative stereo) [Example 347, Trans-6-{[4-(trifluoromethyl)phenyl]sulfonyl}-5,6,7,7a,8,9,10,10a-octahydropyrido[3,2-c]pyrrolo[3,4-e]azepine]	< 5.00	inactive	7.05	90	–	–	–	–	–
Cc1ccc2c(c1)OCC[C@H]1CNC[C@H]21 (relative stereo) [Example 373, Trans-8-methyl-2,3,3a,4,5,10b-hexahydro-1H-[1]benzoxepino[4,5-c]pyrrole]	–	–	–	–	–	70	7.30	100	8.22
C[C@@H](Cc1ccccc1)Oc1ccc2c(c1)C(=O)NC[C@@H]1CN(Cc3ccccc3)C[C@@H]21 (mixture of isomers) [Example 120, Trans-2-benzyl-8-((S)-1-phenylpropan-2-yloxy)-1,2,3,3a,4,5-hexahydrobenzo[e]pyrrolo[3,4-c]azepin-6(10bH)-one]	< 5.00	inactive	6.40	110	–	–	–	–	–
O=C1NC[C@@H]2CN(Cc3ccccc3)C[C@H]2c2ncccc21 (relative stereo) [Example 151, Trans-9-benzyl-7,7a,8,9,10,10a-hexahydropyrido[2,3-e]pyrrolo[3,4-c]azepin-5(6H)-one]	–	inactive	–	–	–	–	< 5.00	> 120	7.15
Nc1ccc2c(c1)C(=O)NC[C@@H]1CN(Cc3ccccc3)C[C@H]21 (relative stereo) [Example 142, Cis-8-amino-2-benzyl-1,2,3,3a,4,5-hexahydrobenzo[e]pyrrolo[3,4-c]azepin-6(10bH)-one]	< 5.00	inactive	5.70	80	–	–	–	–	–
Fc1ccc(COc2cccc3c2OCC[C@H]2CNC[C@H]32)cc1 (relative stereo) [Example 398, Trans-7-[(4-fluorobenzyl)oxy]-2,3,3a,4,5,10b-hexahydro-1H-[1]benzoxepino[4,5-c]pyrrole]	–	–	–	–	–	100	8.52	90	8.70
CN1C[C@@H]2CNC[C@H]2c2ccc(F)cc2C1=O (relative stereo) [Example 224, Trans-8-fluoro-5-methyl-1,2,3,3a,4,5-hexahydrobenzo[c]pyrrolo[3,4-e]azepin-6(10bH)-one]	–	–	–	–	–	45	5.22	> 120	–
CC1(C)CCC(Oc2ccc3c(c2)C(=O)NC[C@@H]2CNC[C@@H]32)CC1 (relative stereo) [Example 246, Trans-8-(4,4-dimethylcyclohexyloxy)-1,2,3,3a,4,5-hexahydrobenzo[e]pyrrolo[3,4-c]azepin-6(10bH)-one]	–	inactive	–	–	–	–	< 5.00	100	7.40
COc1ccc2c(c1)[C@H]1CNC[C@@H]1CC=C2 (relative stereo) [Example 266, Trans-9-methoxy-1,2,3,3a,4,10b-hexahydrobenzo[3,4]cyclohepta[1,2-c]pyrrole]	–	–	–	–	–	25	6.40	> 120	8.00
c1ccc2c(c1)OCC[C@H]1CNC[C@H]21 [Example 270, (3aR,10bS)-2,3,3a,4,5,10b-Hexahydro-1H-[1]benzoxepino[4,5-c]pyrrole]	–	–	–	–	–	50	6.70	> 120	8.00
CCCC(O)c1cccc(-c2ccc3c(c2)C(=O)NC[C@H]2CN(C)C[C@H]32)c1 (stereo partly drawn) [Example 313, (3aS,10bS)-8-[3-(1-Hydroxybutyl)phenyl]-2-methyl-2,3,3a,4,5,10b-hexahydropyrrolo[3,4-d][2]benzazepin-6(1H)-one]	< 5.00	inactive	9.10	95	–	–	–	–	–

Now from value to compound, other results behind:

pEC50 (5HT2B receptors; [1])	Emax (5HT2B receptors; [2])	pEC50 (5HT2C receptors; [3])	Emax (5HT2C receptors; read-out: Emax) [%]	Emax (5HT2B receptors; CHO-K1, 5-HT2B, maximum functional response as percentage relative to the effect of serotonin, read-out: Emax) [%]	Structure (SMILES)	Emax (5HT2B receptors; CHO-K1) [%]	pEC50 (5HT2B receptors; EC50, 5-HT2B agonist activity)	Emax (5HT2C receptors) [%]	pEC50 (5HT2C receptors; EC50, 5-HT2C agonist activity)
< 5.00	inactive	9.05	> 120	–	CN1C[C@@H]2CNC(=O)c3cc(OCc4cccc(F)c4F)ccc3[C@H]2C1 [Example 212, (3aS,10bS)-8-(2,3-Difluorobenzyloxy)-2-methyl-1,2,3,3a,4,5-hexahydrobenzo[e]pyrrolo[3,4-c]azepin-6(10bH)-one]	–	–	–	–
< 5.00	inactive	9.05	> 120	–	CN1C[C@@H]2CNC[C@H]2c2ccc(-c3cccc(CCO)c3)cc2C1=O (relative stereo) [Example 189, Trans-8-(3-(2-hydroxyethyl)phenyl)-5-methyl-1,2,3,3a,4,5-hexahydrobenzo[e]pyrrolo[3,4-c]azepin-6(10bH)-one]	–	–	–	–
< 5.00	inactive	8.15	80	–	COc1ccc(-c2ccc3c(c2)C(=O)NC[C@@H]2CN(C)C[C@@H]32)cc1F (relative stereo) [Example 316, Trans-8-(3-fluoro-4-methoxyphenyl)-2-methyl-2,3,3a,4,5,10b-hexahydropyrrolo[3,4-d][2]benzazepin-6(1H)-one]	–	–	–	–
< 5.00	inactive	9.15	> 120	–	CC(O)c1cccc(-c2ccc3c(c2)C(=O)NC[C@@H]2CN(C)C[C@@H]32)c1 (relative stereo) [Example 238, Trans-8-(3-(1-hydroxyethyl)phenyl)-2-methyl-1,2,3,3a,4,5-hexahydrobenzo[c]pyrrolo[3,4-e]azepin-6(10bH)-one]	–	–	–	–
< 5.00	inactive	7.70	> 120	–	COc1ccccc1-c1ccc2c(c1)C(=O)NC[C@H]1CN(C)C[C@H]21 [Example 275, (3aS,10bS)-8-(2-Methoxyphenyl)-2-methyl-1,2,3,3a,4,5-hexahydrobenzo[e]pyrrolo[3,4-c]azepin-6(10bH)-one]	–	–	–	–
< 5.00	inactive	5.70	50	–	CN1C[C@H]2CNC(=O)c3cc(C(=O)Nc4ccccc4)ccc3[C@@H]2C1 (relative stereo) [Example 128, Trans-2-methyl-6-oxo-N-phenyl-1,2,3,3a,4,5,6,10b-octahydrobenzo[e]pyrrolo[3,4-c]azepine-8-carboxamide]	–	–	–	–
< 5.00	inactive	–	> 120	–	CN1C[C@H]2CNC(=O)c3cc(-c4ccc(F)cc4)ccc3[C@@H]2C1 (relative stereo) [Example 75, Trans-8-(4-fluorophenyl)-2-methyl-1,2,3,3a,4,5-hexahydrobenzo[e]pyrrolo[3,4-c]azepin-6(10bH)-one]	–	–	–	–
< 5.00	inactive	8.00	> 120	–	C[C@H](Cc1ccccc1)Oc1ccc2c(c1)C(=O)NC[C@H]1CNC[C@H]21 [Example 181, (3aR,10bS)-8-((R)-1-Phenylpropan-2-yloxy)-1,2,3,3a,4,5-hexahydrobenzo[e]pyrrolo[3,4-c]azepin-6(10bH)-one]	–	–	–	–
6.00	–	6.52	85	60	COc1ccc(OC)c(S(=O)(=O)N2Cc3cccnc3[C@@H]3CNC[C@H]3C2)c1 (relative stereo) [Example 343, Trans-6-[(2,5-dimethoxyphenyl)sulfonyl]-5,6,7,7a,8,9,10,10a-octahydropyrido[3,2-c]pyrrolo[3,4-e]azepine]	–	–	–	–
